Some results are limits rather than exact numbers.

For assay [1], the target named is IRAK1 (Homo sapiens (Human), UniProt P51617). In words: IRAK1 Enzymatic Assay. It is filed as biochemical. To be noted: His-TEV-IRAK1 (194-712), ATP 1 μM, 3 hours at 30° C. How it is done: IRAK1 is a human purified recombinant enzyme (His-TEV-IRAK1 (194-712)). In this assay, IRAK-1 hydrolyses ATP and autophosphorylates. Measurement of IRAK-1 inhibition was performed in streptavidin coated 384 well FlashPlate (PerkinElmer #SMP410A). His-TEV-IRAK-1 (15 ng/well), ATP (1 μM, [33P]ATP 0.25 μCi/well) and compounds in DMSO (range of concentrations from 20 μM to 1 nM) or controls (2% DMSO) were incubated for 3 hours at 30° C. in assay buffer: Hepes pH7.0 50 mM, Fatty acid-free BSA 0.1%, Dithiothreitol DTT 2 mM, MgCl2 10 mM, EGTA 0.5 mM, Triton-X-100 0.01%. Kinase reaction was stopped by addition of EDTA. Supernatant was discarded, plates were washed three times with 150 mM NaCl and radioactivity was then measured in a Microbeta Trilux reader.

Assay [2] deals with TLR7 induced IL-6 secretion in human mononuclear cells (PBMC's). In words: TLR7 induced IL-6 in Human PBMC's. Format: cell-based. The settings on record: TLR7 specific ligand 2 uM overnight, IL-6 Alpha LISA. As for the experimental part:
TLR7 induced IL-6 in Human PBMC's
Human PBMC assay was used as one of the functional assays to monitor the activity of IRAK1 and IRAK4 small molecule inhibitors on TLR7 induced IL-6 secretion in human mononuclear cells (PBMC's). Human PBMCs were prepared from buffy coats (whole blood enriched with leukocytes and platelets) obtained from healthy volunteers used either fresh or frozen are plated in assay media (RPMI+2% P/S/L-glu+10% HI-FBS) and pre-treated with compounds in DMSO/media (range of concentrations from 25 uM to 0.4 nM) or controls (0.25% DMSO) for 30 minutes at 37° C. in assay media. Following pre-treatment with IRAK1 and IRAK4 inhibitors, PBMC's were stimulated with TLR7 specific ligand (2 uM) overnight (16-18 hrs) at 37° C. After incubation supernatant was transferred to 384 well PE AlphaPlate-384 (6005350) and IL-6 is quantified using Perkin Elmer IL-6 Alpha LISA kit (AL223C). Plates were read on an Envision® plate reader with Alpha Technology®.
(Bead proximity is the source of the signal in Alpha formats.)

For assay [3], the target named is IRAK4 (Homo sapiens, UniProt Q9NWZ3). As to the kind of experiment: IRAK4 Enzymatic Assay. The settings on record: His-TEV-IRAK4, ATP 2 μM, STK1-biotin peptide 300 nM, 3 hours at 30° C. It is filed as biochemical. As for the experimental part: IRAK4 Enzymatic Assay IRAK4 is a human purified recombinant enzyme ([…]. IRAK4 hydrolyses ATP, autophosphorylates and phosphorylates a Serine/Threonine generic peptidic substrate (STK: 61ST1BLC from CisBio International based in Bagnols/Cèze FR). Measurement of IRAK-4 inhibition was performed in streptavidin coated 384 well FlashPlate (PerkinElmer #SM[…]). His-TEV-IRAK4 (20 ng/well), ATP (2 μM, [^33P]ATP 0.25 μCi/well), STK1-biotin peptide (300 nM) and compounds in DMSO (range of concentrations from 20 μM to 1 nM) or controls (2% DMSO) were incubated for 3 hours at 30° C. in assay buffer: Hepes pH7.0 50 mM, Fatty acid-free BSA 0.1%, Dithiothreitol DTT 2 mM, MgCl2 10 mM, EGTA 0.5 mM, Tween-20 0.01%, MnCl2 5 mM. Kinase reaction was stopped by addition of EDTA.
Chain of IRAK4 (Q9NWZ3 whole entry, looked up): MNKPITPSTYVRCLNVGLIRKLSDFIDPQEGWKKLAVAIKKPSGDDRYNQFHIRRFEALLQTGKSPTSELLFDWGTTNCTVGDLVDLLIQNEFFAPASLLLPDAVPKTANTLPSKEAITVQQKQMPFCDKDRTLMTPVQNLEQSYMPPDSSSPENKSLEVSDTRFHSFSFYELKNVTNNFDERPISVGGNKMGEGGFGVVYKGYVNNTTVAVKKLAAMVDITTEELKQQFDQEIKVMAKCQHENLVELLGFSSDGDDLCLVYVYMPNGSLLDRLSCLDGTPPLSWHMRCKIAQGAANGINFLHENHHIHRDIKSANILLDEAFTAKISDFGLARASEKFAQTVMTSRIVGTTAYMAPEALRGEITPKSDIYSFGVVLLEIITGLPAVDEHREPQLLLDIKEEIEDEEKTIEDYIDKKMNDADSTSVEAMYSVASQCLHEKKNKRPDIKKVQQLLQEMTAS

Chain of IRAK1 (P51617 194-712): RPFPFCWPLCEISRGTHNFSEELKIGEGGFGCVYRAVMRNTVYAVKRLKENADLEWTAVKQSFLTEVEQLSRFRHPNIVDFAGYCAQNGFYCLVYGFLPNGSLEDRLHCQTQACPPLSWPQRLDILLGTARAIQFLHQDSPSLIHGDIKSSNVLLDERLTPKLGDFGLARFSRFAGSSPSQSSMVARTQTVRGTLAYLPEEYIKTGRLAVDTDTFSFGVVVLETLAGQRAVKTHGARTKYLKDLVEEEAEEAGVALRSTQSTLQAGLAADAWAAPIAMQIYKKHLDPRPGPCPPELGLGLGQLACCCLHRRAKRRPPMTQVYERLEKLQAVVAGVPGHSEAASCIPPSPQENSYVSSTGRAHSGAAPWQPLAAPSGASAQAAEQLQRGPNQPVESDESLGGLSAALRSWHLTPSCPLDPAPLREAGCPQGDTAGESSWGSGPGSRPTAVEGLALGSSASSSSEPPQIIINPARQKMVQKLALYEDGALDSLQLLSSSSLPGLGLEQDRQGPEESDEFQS

With `CC[C@@H]1[C@H](F)C(=O)N[C@@H]1COc1cccc2cc(C(N)=O)c(OC)nc12` [Compound 4, 8-((2S,3S,4S)-3-Ethyl-4-fluoro-5-oxo-pyrrolidin-2-ylmethoxy)-2-methoxy-quinoline-3-carboxylic acid amide], the IC50 in assay [1] was 100 to 1000 nM; in assay [2], below 500 nM; in assay [3], below 100 nM.

Regarding `CC[C@@H]1[C@H](F)C(=O)N[C@@H]1COc1nccc2cc(C(N)=O)c(OC)nc12` [Compound 6, 8-((2S,3S,4S)-3-Ethyl-4-fluoro-5-oxo-pyrrolidin-2-ylmethoxy)-2-methoxy-[1,7]naphthyridine-3-carboxylic acid amide], the IC50 was 1000 to 5000 nM in assay [1] and below 100 nM in assay [3].

`COc1nc2c(OC[C@@H]3CC(F)(F)C(=O)N3)cccc2cc1C(N)=O` [Compound 5, 8-((S)-4,4-Difluoro-5-oxo-pyrrolidin-2-ylmethoxy)-2-methoxy-quinoline-3-carboxylic acid amide]: the results for the IC50 in assay [1], in assay [2] and in assay [3] were 1000 to 5000 nM, below 500 nM and below 100 nM, respectively.

For the compound `COc1cc2c(OCC3CCC(=O)N3)cccc2nc1C(N)=O` (stereo not shown) [Compound 2, 3-Methoxy-5-(5-oxo-pyrrolidin-2-ylmethoxy)-quinoline-2-carboxylic acid amide], the IC50 in assay [1] is above 5000 nM; in assay [3], 100 to 1000 nM.

For the compound `COc1nc2c(OC[C@@H]3CCC(=O)N3)cccc2cc1C(N)=O` [Compound 3, 2-Methoxy-8-((S)-5-oxo-pyrrolidin-2-ylmethoxy)-quinoline-3-carboxylic acid amide], the half-maximal inhibitory concentration (IC50) in assay [1] was 1000 to 5000 nM; in assay [2], below 500 nM; in assay [3], below 100 nM.

Regarding `COc1nc2c(OCC3CCC(=O)N3)cccc2cc1C(N)=O` (stereo not shown) [Compound 1, 2-Methoxy-8-(5-oxo-pyrrolidin-2-ylmethoxy)-quinoline-3-carboxylic acid amide], the values for the IC50 in assay [1], in assay [2] and in assay [3] were above 5000 nM, below 500 nM and below 100 nM, respectively.

One may read the IC50 as the concentration needed to halve the response being measured. Read a low IC50 as greater potency in that assay.
